Patent publication US20210267203A1, “PESTICIDALLY ACTIVE AZOLE-AMIDE COMPOUNDS” (SYNGENTA PARTICIPATIONS AG, priority 2018, published 2021)

What was measured:
Assay type in all cases: in vivo
[1] = tested on: Euschistus heros (Neotropical Brown Stink Bug); test: Example B2: Euschistus heros (neotropical brown stink bug), soybean leaves sprayed, N2 nymphs; conditions: 120 h, application rate 200 ppm, 5 days after infestation, read-out: effect in at least one of the two categories (mortality or growth inhibition)
Protocol: Example B2: Euschistus heros (Neotropical Brown Stink Bug)
Soybean leaves on agar in 24-well microtiter plates were sprayed with aqueous test solutions prepared from 10,000 ppm DMSO stock solutions. After drying the leaves were infested with N2 nymphs. The samples were assessed for mortality and growth inhibition in comparison to untreated samples 5 days after infestation.
(§1) The following compounds gave an effect of at least 80% in at least one of the two categories (mortality or growth inhibition) at an application rate of 200 ppm: […]

[2] = tested on: Myzus persicae (Green Peach Aphid); test: Example B8: Myzus persicae (green peach aphid), intrinsic activity; conditions: 120 h, test rate 12 ppm, sucrose solution, 24-well, 5 days after infestation
Text: Example B8: Myzus persicae (Green Peach Aphid), Intrinsic Activity
Test compounds prepared from 10,000 ppm DMSO stock solutions were applied by pipette into 24-well microtiter plates and mixed with sucrose solution. The plates were closed with a stretched Parafilm. A plastic stencil with 24 holes was placed onto the plate and infested pea seedlings were placed directly on the Parafilm. The infested plate was closed with a gel blotting paper and another plastic stencil and then turned upside down. The samples were assessed for mortality 5 days after infestation.

[3] = tested on: Myzus persicae (Green Peach Aphid); test: Example B13: activity against Myzus persicae (green peach aphid), 96-well sucrose solution; conditions: 120 h, application rate 50 ppm, 5 days after infestation
Text: Example B13: Activity Against Myzus persicae (Green Peach Aphid)
Test compounds prepared from 10,000 ppm DMSO stock solutions were applied by a liquid handling robot into 96-well microtiter plates and mixed with a sucrose solution. Parafilm was stretched over the 96-well microtiter plate and a plastic stencil with 96 holes was placed onto the plate. Aphids were sieved into the wells directly onto the Parafilm. The infested plates were closed with a gel blotting card and a second plastic stencil and then turned upside down. The samples were assessed for mortality 5 days after infestation.

[4] = tested on: Plutella xylostella (Diamondback Moth); test: Example B14: activity against Plutella xylostella (diamondback moth), 96-well artificial diet; conditions: 216 h, application rate 500 ppm, 9 days after infestation
Protocol: Example B14: Activity Against Plutella xylostella (Diamondback Moth)
96-well microtiter plates containing artificial diet were treated with aqueous test solutions, prepared from 10,000 ppm DMSO stock solutions, by a liquid handling robot. After drying, eggs (30 per well) were infested onto a netted lid which was suspended above the diet. The eggs hatch and L1 larvae move down to the diet. The samples were assessed for mortality 9 days after infestation.
The following compounds gave an effect of at least 80% average mortality at an application rate of 500 ppm: […]

[5] = tested on: Plutella xylostella (Diamond Back Moth); test: Example B5: Plutella xylostella (diamond back moth), artificial diet, 24-well, eggs; conditions: 192 h, application rate 200 ppm, 8 days after infestation, read-out: effect in at least one of the two categories (mortality or growth inhibition)
Protocol: Example B5: Plutella xylostella (Diamond Back Moth)
24-well microtiter plates with artificial diet were treated with aqueous test solutions prepared from 10,000 ppm DMSO stock solutions by pipetting. After drying, Plutella eggs were pipetted through a plastic stencil onto a gel blotting paper and the plate was closed with it. The samples were assessed for mortality and growth inhibition in comparison to untreated samples 8 days after infestation. The following compounds gave an effect of at least 80% in at least one of the two categories (mortality or growth inhibition) at an application rate of 200 ppm: […]

[6] = tested on: Diabrotica Balteata (Corn Root Worm); test: Example B1: Diabrotica balteata (corn root worm), maize sprouts sprayed, L2 larvae; conditions: 96 h, application rate 200 ppm, 4 days after infestation, read-out: effect in at least one of the two categories (mortality or growth inhibition)
Protocol: Example B1: Diabrotica Balteata (Corn Root Worm)
Maize sprouts placed onto an agar layer in 24-well microtiter plates were treated with aqueous test solutions prepared from 10,000 ppm DMSO stock solutions by spraying. After drying, the plates were infested with L2 larvae (6 to 10 per well). The samples were assessed for mortality and growth inhibition in comparison to untreated samples 4 days after infestation.
as §1

[7] = tested on: Chilo suppressalis (Striped Rice Stemborer); test: Example B4: Chilo suppressalis (striped rice stemborer), artificial diet, L2 larvae; conditions: 144 h, application rate 200 ppm, 6 days after infestation
Protocol: Example B4: Chilo suppressalis (Striped Rice Stemborer)
24-well microtiter plates with artificial diet were treated with aqueous test solutions prepared from 10,000 ppm DMSO stock solutions by pipetting. After drying, the plates were infested with L2 larvae (6-8 per well). The samples were assessed for mortality, anti-feeding effect, and growth inhibition in comparison to untreated samples 6 days after infestation. Control of Chilo suppressalis by a test sample is given when at least one of the categories (i.e. mortality, anti-feedant effect, and growth inhibition) is higher than the untreated sample.

[8] = tested on: Spodoptera littoralis (Egyptian Cotton Leaf Worm); test: Example B9: Spodoptera littoralis (Egyptian cotton leaf worm), cotton leaf discs sprayed, L1 larvae; conditions: foliar, 72 h, application rate 200 ppm, 3 days after infestation
Protocol: Example B9: Spodoptera littoralis (Egyptian Cotton Leaf Worm)
Cotton leaf discs were placed onto agar in 24-well microtiter plates and sprayed with aqueous test solutions prepared from 10,000 ppm DMSO stock solutions. After drying the leaf discs were infested with five L1 larvae. The samples were assessed for mortality, anti-feeding effect, and growth inhibition in comparison to untreated samples 3 days after infestation. Control of Spodoptera littoralis by a test sample is given when at least one of the three categories (i.e. mortality, anti-feedant effect, and growth inhibition) is higher than the untreated sample.

CC(c1ncnn1-c1ncccn1)N(CC1CC1)C(=O)c1cc(C(F)(F)F)nc(S(C)(=O)=O)c1 (centres unmarked) [P53, N-(cyclopropylmethyl)-2-methylsulfonyl-N-[1-(2-pyrimidin-2-yl-1,2,4-triazol-3-yl)ethyl]-6-(trifluoromethyl)pyridine-4-carboxamide]
≥ 80%: percent effect (mortality or growth inhibition) at 200 ppm [1]

CC(c1ncnn1-c1ncccn1)N(CC1CC1)C(=O)c1cccc(C2(C#N)CC2)c1 (centres unmarked) [P21, 3-(1-cyanocyclopropyl)-N-(cyclopropylmethyl)-N-[1-(2-pyrimidin-2-yl-1,2,4-triazol-3-yl)ethyl]benzamide]
≥ 80%: mortality at 12 ppm [2] | mortality at 50 ppm [3] | mortality at 500 ppm [4]

CC(c1ncnn1-c1ncccn1)N(CC1CC1)C(=O)c1cccc(C2CC2C(F)(F)F)c1 (centres unmarked) [P23, N-(cyclopropylmethyl)-N-[1-(2-pyrimidin-2-yl-1,2,4-triazol-3-yl)ethyl]-3-[2-(trifluoromethyl)cyclopropyl]benzamide]
≥ 80%: percent effect (mortality or growth inhibition) at 200 ppm [5] | mortality at 12 ppm [2] | mortality at 50 ppm [3] | mortality at 500 ppm [4]

CC(c1ncnn1-c1ncccn1)N(CC1CC1)C(=O)c1cc(C(F)(F)F)cc(C(C)(C)C#N)n1 (centres unmarked) [P31, 6-(1-cyano-1-methyl-ethyl)-N-(cyclopropylmethyl)-N-[1-(2-pyrimidin-2-yl-1,2,4-triazol-3-yl)ethyl]-4-(trifluoromethyl)pyridine-2-carboxamide]
≥ 80%: percent effect (mortality or growth inhibition) at 200 ppm [6] | percent effect (mortality or growth inhibition) at 200 ppm [5] | mortality at 50 ppm [3] | mortality at 500 ppm [4]

CC(NC(=O)c1cc(C(F)(F)F)cc(C2(C#N)CC2)c1)c1ncnn1-c1ccccn1 (centres unmarked) [P76, 3-(1-cyanocyclopropyl)-N-[1-[2-(2-pyridyl)-1,2,4-triazol-3-yl]ethyl]-5-(trifluoromethyl)benzamide]
≥ 80%: percent effect (mortality or growth inhibition) at 200 ppm [6] | percent control (mortality, anti-feedant effect or growth inhibition) at 200 ppm [7] | percent effect (mortality or growth inhibition) at 200 ppm [5] | percent control (mortality, anti-feedant effect or growth inhibition) at 200 ppm [8]

CC(NC(=O)c1cc(C(F)(F)F)cc(C(F)(F)C2CCC2)c1)c1ncnn1-c1ncccn1 (centres unmarked) [P66, 3-[cyclobutyl(difluoro)methyl]-N-[1-(2-pyrimidin-2-yl-1,2,4-triazol-3-yl)ethyl]-5-(trifluoromethyl)benzamide]
≥ 80%: percent control (mortality, anti-feedant effect or growth inhibition) at 200 ppm [7]

CC(NC(=O)c1cc(C2CC2)cc(C(F)(F)F)c1)c1ncnn1-c1ccc(Br)cn1 (centres unmarked) [P74, N-[1-[2-(5-bromo-2-pyridyl)-1,2,4-triazol-3-yl]ethyl]-3-cyclopropyl-5-(trifluoromethyl)benzamide]
≥ 80%: percent effect (mortality or growth inhibition) at 200 ppm [6] | percent control (mortality, anti-feedant effect or growth inhibition) at 200 ppm [7] | percent effect (mortality or growth inhibition) at 200 ppm [5] | percent control (mortality, anti-feedant effect or growth inhibition) at 200 ppm [8]

CC(c1ncnn1-c1ncccn1)N(CC1CC1)C(=O)c1cc(OC2CC2)cc(OC2CC2)c1 (centres unmarked) [P60, 3,5-bis(cyclopropoxy)-N-(cyclopropylmethyl)-N-[1-(2-pyrimidin-2-yl-1,2,4-triazol-3-yl)ethyl]benzamide]
≥ 80%: percent effect (mortality or growth inhibition) at 200 ppm [6] | percent effect (mortality or growth inhibition) at 200 ppm [5] | mortality at 50 ppm [3] | mortality at 500 ppm [4]

CC(c1ncnn1-c1ncccn1)N(CC1CC1)C(=O)c1cc(OC2CC2)cc(C(F)(F)F)c1 (centres unmarked) [P51, 3-(cyclopropoxy)-N-(cyclopropylmethyl)-N-[1-(2-pyrimidin-2-yl-1,2,4-triazol-3-yl)ethyl]-5-(trifluoromethyl)benzamide]
≥ 80%: percent effect (mortality or growth inhibition) at 200 ppm [6] | percent effect (mortality or growth inhibition) at 200 ppm [5] | percent control (mortality, anti-feedant effect or growth inhibition) at 200 ppm [8] | mortality at 50 ppm [3] | mortality at 500 ppm [4]

CC(c1ncnn1-c1ncccn1)N(CC1CC1)C(=O)c1cccc(C(F)(F)C2CC2)c1 (centres unmarked) [P40, 3-[cyclopropyl(difluoro)methyl]-N-(cyclopropylmethyl)-N-[1-(2-pyrimidin-2-yl-1,2,4-triazol-3-yl)ethyl]benzamide]
≥ 80%: percent effect (mortality or growth inhibition) at 200 ppm [6] | percent effect (mortality or growth inhibition) at 200 ppm [5] | percent control (mortality, anti-feedant effect or growth inhibition) at 200 ppm [8] | mortality at 50 ppm [3] | mortality at 500 ppm [4]

CC(c1ncnn1-c1ncccn1)N(CC1CC1)C(=O)c1cc(C(F)(F)F)cc(C2(C)CC2(F)F)c1 (centres unmarked) [P44, N-(cyclopropylmethyl)-3-(2,2-difluoro-1-methyl-cyclopropyl)-N-[1-(2-pyrimidin-2-yl-1,2,4-triazol-3-yl)ethyl]-5-(trifluoromethyl)benzamide]
≥ 80%: percent effect (mortality or growth inhibition) at 200 ppm [6] | percent effect (mortality or growth inhibition) at 200 ppm [1] | percent effect (mortality or growth inhibition) at 200 ppm [5] | percent control (mortality, anti-feedant effect or growth inhibition) at 200 ppm [8] | mortality at 50 ppm [3] | mortality at 500 ppm [4]

CC(c1ncnn1-c1ncccn1)N(CC1CC1)C(=O)c1cc(C(F)(F)F)cc(C2(C(F)(F)F)CC2(F)F)c1 (centres unmarked) [P41, N-(cyclopropylmethyl)-3-[2,2-difluoro-1-(trifluoromethyl)cyclopropyl]-N-[1-(2-pyrimidin-2-yl-1,2,4-triazol-3-yl)ethyl]-5-(trifluoromethyl)benzamide]
≥ 80%: percent effect (mortality or growth inhibition) at 200 ppm [6] | percent effect (mortality or growth inhibition) at 200 ppm [1] | percent effect (mortality or growth inhibition) at 200 ppm [5] | percent control (mortality, anti-feedant effect or growth inhibition) at 200 ppm [8] | mortality at 500 ppm [4]

CC(c1ncnn1-c1ncccn1)N(CC1CC1)C(=O)c1cc(C(F)(F)F)cc(C2(C#N)CC2)n1 (centres unmarked) [P33, 6-(1-cyanocyclopropyl)-N-(cyclopropylmethyl)-N-[1-(2-pyrimidin-2-yl-1,2,4-triazol-3-yl)ethyl]-4-(trifluoromethyl)pyridine-2-carboxamide]
≥ 80%: percent effect (mortality or growth inhibition) at 200 ppm [6] | percent effect (mortality or growth inhibition) at 200 ppm [5] | mortality at 50 ppm [3] | mortality at 500 ppm [4]
